A short description of one series: MTT assay on A549 cells. In kind it is cell-based, human. Conditions: human, A549 lung carcinoma cells, 72 h, read-out: Cell Viability, %; for viability at 72 h, 10 µM: A549, 10 µM; for viability at 72 h, 100 µM: A549, 100 µM. On the procedure:
(§1) A549, NCI-H460, NCI-H1975 lung cancer cells and WI-26 VA4 lung epithelial-like cells were purchased from the ATCC. A549 cells were maintained in F12-K (Corning, NY, USA) supplemented with 10% fetal bovine serum (Fetal Bovine Serum, qualified, Australia; Gibco, Loughborough, UK), penicillin (100 UI mL^−1), streptomycin (100 µg mL^−1), and GlutaMax (1.9 mM, Gibco, UK). NCI-H460 and NCI-H1975 cells were maintained in RPMI-1640 (ATCC modification) media (Gibco, Loughborough, UK) supplemented with 10% fetal bovine serum (Fetal Bovine Serum, qualified, Australia; Gibco, Loughborough, UK), penicillin (100 UI mL^−1), streptomycin (100 µg mL^−1), and GlutaMax (2 mM, Gibco, UK). WI-26 VA4 cells were maintained in Advanced MEM (Gibco, Loughborough, UK) supplemented with 5% fetal bovine serum (Fetal Bovine Serum, qualified, Australia, Gibco, UK), penicillin (100 UI mL^−1), streptomycin (100 µg mL^−1), and GlutaMax (1.87 mM, Gibco, Loughborough, UK). All cells line cultivation under a humidified atmosphere of 95% air/5% CO2 at 37 °C. Subconfluent monolayers, in the log growth phase, were harvested by a brief treatment with TrypLE Express solution (Gibco, Loughborough, UK) in phosphate buffered saline (PBS, Capricorn Scientific, Germany) and washed three times in serum-free PBS. The number of viable cells was determined by trypan blue exclusion.
(§2) The effects of the synthesized compounds on cell viability were determined using the MTT colorimetric test. All examined cells were diluted with the growth medium to 3.5 × 10^4 cells per mL and the aliquots (7 × 10^3 cells per 200 μL) were placed in individual wells in 96-well plates (Eppendorf, Hamburg, Germany) and incubated for 24 h. The next day, the cells were treated with synthesized compounds separately in concentration 10 and 100 μM (or 200.0 μM concentration and diluted at various concentrations for determination of IC50) and incubated for 72 h at 37 °C in 5% CO2 atmosphere. Each compound was tested in triplicate. After incubation, the cells were treated with 40 μL MTT solution (3-(4,5-dimethylthiazol-2-yl)-2,5-diphenyltetrazolium bromide, 5 mg mL^−1 in PBS) and incubated for 4 h. After additional 4-h incubation, the medium with MTT was removed and DMSO (150 μL) was added to dissolve the formazan crystals. The plates were shaken for 10 min. The optical density of each well was determined at 560 nm using GloMax Multi+ (Promega, Madison, WI, USA) microplate reader. Each of the tested compounds was evaluated for cytotoxicity in three separate experiments. All stock solutions for biological evaluations were prepared via dissolving synthesized compounds in DMSO.

In series [1] the test system is A549 human lung carcinoma cells. The series is described as follows: MTT assay on A549 cells. In kind it is cell-based. Particulars: A549, 72 h. As for the experimental part:
as §1, §2

Series [2] concerns NCI-H460 non-small cell lung carcinoma cells. The series is described as follows: MTT assay on NCI-H460 cells. In kind it is cell-based, human. Particulars: NCI-H460, 72 h. As for the experimental part:
as §1, §2

In series [3] the test system is EGFR-mutant NCI-H1975 non-small cell lung carcinoma cells. The series is described as follows: MTT assay on NCI-H1975 cells. In kind it is cell-based, human. Particulars: NCI-H1975, 72 h, MTT. On the procedure:
as §1, §2
(Formazan colour is commonly taken as a measure of viable cells.)

Series [4] relates to non-cancerous lung fibroblast WI-26 VA4. The series is described as follows: MTT assay on WI-26 VA4 cells (non-specific cytotoxicity). Type of series: cell-based, human. Conditions: WI-26 VA4, 72 h. On the procedure:
as §1, §2

Series [5] can be described thus: Molar conductivity in DMSO solution. In kind it is physicochemical. Conditions: DMSO solutions, 25 °C. On the procedure:
The preparation and characterization of starting pyridine-N-oxides as well as U1–12 are described previously. CuCl2, other reactants, and solvents were obtained from commercial sources. High-resolution mass-spectra (HRMS) were measured on Bruker Maxis HRMS-ESI-qTOF (Electrospray Ionization, ESI; Bruker, Billerica, MA, USA); a MeOH was used as the solvent. The instrument was operated at positive ion mode using m/z range of 50–3000. The capillary voltage of the ion source was set at –4500 V (ESI^+) and the capillary exit at +(70–150) V. The nebulizer gas pressure was 0.4 bar and drying gas flow was 4.0 L/min. The most intensive peak in the isotopic pattern is reported. Infrared spectra (4000–400 cm^–1) were recorded on a Shimadzu FTIR 8400S (Shimadzu, Kyoto, Japan) instrument in KBr pellets. The C, H, and N elemental analyses were carried out on a Leco TruSpec Micro CHNS analyzer (LECO, St. Joseph, MI, USA). TGA was performed on a ca. 2 mg samples of Cu(II) complexes by using a Netzsch TG 209 F1 Libra thermal analyzer (Netzsch, Selb, Germany). The samples were dried under a vacuum at 50 °C before heating from 40 to 450 °C at a heating rate of 10 K min^–1. A flow rate of 10 mL min^–1 of dry argon was used to purge the samples. Molar conductivity was measured with an Elico digital conductivity bridge model CM-88, using a freshly prepared DMSO solution of the complexes.

Data on 22 molecules can be found in PMC8962293, “Synthesis, Structure, and Antiproliferative Action of 2-Pyridyl Urea-Based Cu(II) Complexes” (Biomedicines, 2022).

One may read the viability as a read-out of living cells in per cent, often relative to untreated cells. Consider `Cc1ccnc(NC(=O)N(C)C)c1` [Complex U2], for which, in “MTT assay on A549 cells”, the viability at 72 h, 10 µM stood at 102 ± 2.7% and the viability at 72 h, 100 µM was found to be 98.7 ± 3.8%.
For `Cc1ccnc(NC(=O)N2CCCCC2)c1` [Complex U9], in the series “MTT assay on A549 cells”, the viability at 72 h, 10 µM amounted to 103 ± 6.3% and the viability at 72 h, 100 µM came out at 98.3 ± 8.1%.
For the molecule `CN(C)C(=O)Nc1ccccn1` [Complex U1], in “MTT assay on A549 cells”, the viability at 72 h, 10 µM worked out at 100 ± 18% and the viability at 72 h, 100 µM turned out to be 86.5 ± 7.5%.
With `Cc1nc(-c2ccnc(NC(=O)N(C)C)c2)no1` [Complex U5], in the series “MTT assay on A549 cells”, the viability at 72 h, 10 µM was 101 ± 5.5% and the viability at 72 h, 100 µM was determined as 90.2 ± 8.7%.
Regarding `Cc1nnc(-c2ccnc(NC(=O)N(C)C)c2)o1` [Complex U6], in “MTT assay on A549 cells”, the viability at 72 h, 10 µM stood at 94.5 ± 7.1% and the viability at 72 h, 100 µM worked out at 89.9 ± 2.4%.
The term IC50 denotes the concentration that inhibits the measured activity by half. A lower IC50 goes with inhibition by little substance. In the case of `Cc1ccnc(NC(=O)N(C)C)c1.Cc1ccnc(NC(=O)N(C)C)c1.[Cl-].[Cl-].[Cu+2]` [[Cu(U2)2Cl]^+[Cl]^−], the IC50 in series [1] came out at 94.5 ± 14.1 µM; in series [2], 122 ± 15.3 µM; in series [3], 65.4 ± 8.6 µM; in series [4] it was 101 ± 15.1 µM. In series [5], the Molar conductivity is recorded as 24.8 Ω^−1·cm^2·mol^−1.
Consider `Cc1ccnc(NC(=O)N2CCOCC2)c1.Cc1ccnc(NC(=O)N2CCOCC2)c1.[Cl-].[Cl-].[Cu+2]` [[Cu(U12)2Cl]^+[Cl]^−], for which the IC50 in series [1] came to 89.3 ± 6.67 µM; in series [2], 128 ± 19.5 µM; in series [3] it was 70.2 ± 4.9 µM; in series [4] it was 109 ± 13.7 µM.
Turning to `Cc1nnc(-c2ccnc(NC(=O)N(C)C)c2)o1.Cc1nnc(-c2ccnc(NC(=O)N(C)C)c2)o1.[Cl-].[Cl-].[Cu+2]` [[Cu(U6)2Cl]^+[Cl]^−], the IC50 was determined as 88.7 ± 12.7 µM in series [1], 115 ± 26.3 µM in series [2], 63.8 ± 8.7 µM in series [3] and 105 ± 14.1 µM in series [4].
In the case of `CN(C)C(=O)Nc1ccccn1.CN(C)C(=O)Nc1ccccn1.[Cl-].[Cl-].[Cu+2]` [[Cu(U1)2Cl]^+[Cl]^−], the IC50 in series [1] was found to be 107 ± 15.1 µM; in series [2], 120 ± 18.4 µM; in series [3], 65.3 ± 10.9 µM; in series [4] it was 108 ± 27.5 µM.
Turning to `O=C(Nc1ccccn1)N1CCCCC1` [Complex U8], in “MTT assay on A549 cells”, the viability at 72 h, 10 µM was 100 ± 9.4% and the viability at 72 h, 100 µM came out at 97.2 ± 6.1%.
`CN(C)C(=O)Nc1cc(C#N)ccn1.CN(C)C(=O)Nc1cc(C#N)ccn1.[Cl-].[Cl-].[Cu+2]` [[Cu(U4)2Cl]^+[Cl]^−]: the IC50 in series [1] was 106 ± 12.2 µM; in series [2], 118 ± 13.4 µM; in series [3], 68.3 ± 8.5 µM; in series [4] it was 109 ± 16.4 µM. Moreover, in series [5], the Molar conductivity is on record as 25.2 Ω^−1·cm^2·mol^−1.
For the molecule `O=C(Nc1cc([N+](=O)[O-])ccn1)N1CCCCC1` [Complex U11], in the series “MTT assay on A549 cells”, the viability at 72 h, 10 µM is 105 ± 6.7% and the viability at 72 h, 100 µM amounted to 94.3 ± 9%.
Regarding `O=C(Nc1cc([N+](=O)[O-])ccn1)N1CCCCC1.O=C(Nc1cc([N+](=O)[O-])ccn1)N1CCCCC1.[Cl-].[Cl-].[Cu+2]` [[Cu(U11)2Cl2]], the concentration for half-maximal inhibition (IC50) in series [1] stood at 46 ± 4.98 µM; in series [2], 53.6 ± 4.7 µM; in series [3] it was 33.4 ± 3.8 µM; in series [4] it was 62.4 ± 5.6 µM. In addition, in series [5], the Molar conductivity was 21.7 Ω^−1·cm^2·mol^−1.
In the case of `O=C(Nc1ccccn1)N1CCCC1.O=C(Nc1ccccn1)N1CCCC1.[Cl-].[Cl-].[Cu+2]` [[Cu(U7)2Cl]^+[Cl]^−], the IC50 in series [1] turned out to be 102 ± 15.8 µM; in series [2], 103 ± 13.1 µM; in series [3] it was 66.7 ± 7.6 µM; in series [4] it was 100 ± 16.6 µM.
On to `Cc1nc(-c2ccnc(NC(=O)N(C)C)c2)no1.Cc1nc(-c2ccnc(NC(=O)N(C)C)c2)no1.[Cl-].[Cl-].[Cu+2]` [[Cu(U5)2Cl]^+[Cl]^−], for which the concentration for half-maximal inhibition (IC50) came to 114 ± 14.5 µM in series [1], 136 ± 12.5 µM in series [2], 71.2 ± 6.9 µM in series [3] and 118 ± 24.9 µM in series [4].
Consider `Cc1ccnc(NC(=O)N2CCOCC2)c1` [Complex U12], for which, in “MTT assay on A549 cells”, the viability at 72 h, 10 µM came to 97.4 ± 5.5% and the viability at 72 h, 100 µM was found to be 85.4 ± 7.8%.
Regarding `O=C(Nc1ccccn1)N1CCCCC1.O=C(Nc1ccccn1)N1CCCCC1.[Cl-].[Cl-].[Cu+2]` [[Cu(U8)2Cl]^+[Cl]^−], the IC50 stood at 98.4 ± 11.1 µM in series [1], 102 ± 17.3 µM in series [2], 64.4 ± 10.5 µM in series [3] and 111 ± 19.3 µM in series [4].
With `COc1ccnc(NC(=O)N2CCCCC2)c1` [Complex U10], in the series “MTT assay on A549 cells”, the viability at 72 h, 10 µM was found to be 102 ± 5.2% and the viability at 72 h, 100 µM amounted to 99.5 ± 8.1%.
For `CN(C)C(=O)Nc1cc(C#N)ccn1` [Complex U4], in “MTT assay on A549 cells”, the viability at 72 h, 10 µM came to 94.2 ± 6.7% and the viability at 72 h, 100 µM came to 89 ± 5.1%.
On to `CN(C)C(=O)Nc1cc([N+](=O)[O-])ccn1` [Complex U3], for which, in “MTT assay on A549 cells”, the viability at 72 h, 10 µM was determined as 95.5 ± 3.3% and the viability at 72 h, 100 µM amounted to 91.6 ± 4.3%.
Turning to `Cc1ccnc(NC(=O)N2CCCCC2)c1.Cc1ccnc(NC(=O)N2CCCCC2)c1.[Cl-].[Cl-].[Cu+2]` [[Cu(U9)2Cl]^+[Cl]^−], the IC50 is 76.1 ± 8.86 µM in series [1], 66.4 ± 5.7 µM in series [2], 61.6 ± 6 µM in series [3] and 113 ± 23.5 µM in series [4].
On to `O=C(Nc1ccccn1)N1CCCC1` [Complex U7], for which, in the series “MTT assay on A549 cells”, the viability at 72 h, 10 µM turned out to be 103 ± 2.8% and the viability at 72 h, 100 µM was 99.8 ± 5.7%.
